Measurements as given in patent US11066369B2, “N-(pyridin-2-yl)pyridine-sulfonamide derivatives and their use in the treatment of disease” (Novartis AG, priority 2016, dated 2021).

Assays:
delF508-CFTR = target: T1, delF508-CFTR (Homo sapiens, UniProt P13569, DEL508-508); assay: Measurement of delF508-CFTR functional activity in primary human bronchial epithelial cells (HBECs) using Multi-Transepithelial Clamp Circuit (MTECC-24) assay; type: cell-based; settings: primary CF HBECs; for MTECC24 CFHBEC- Amax %: test compound added 24h before assay plus potentiator, relative to reference combination (2 μM corrector + 0.5 μM potentiator); for EC50: test compound added 24h before assay, in the presence of potentiator, mean of at least two replicates, read-out: MTECC24 CFHBEC- EC50
T1 construct: functional activity of the CFTR channel (Chloride ion transport) in patient derived primary human bronchial epithelial cells; host or cells: patient-derived primary human bronchial epithelial cells (delF508-CFTR)
Method in brief: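 Patient-derived primary delF508-CFTR HBECs, differentiated at air-liquid interface ~2 weeks, treated basolaterally with compound for 24 h, then apical and basolateral compound in HEPES pH 7.4 assay medium. Equivalent short-circuit current (Ieq) recorded on MTECC-24 with sequential amiloride, forskolin, potentiator and INH-172; normalized to 0.1% DMSO, EC50 from curve fit.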

[1] = target: T2, horseradish peroxidase (HRP) tagged delF508-CFTR (Homo sapiens, UniProt P13569, DEL508-508); assay: Measurement of delF508-CFTR-HRP surface expression in CFBE41o- cells; type: cell-based; settings: delF508-CFTR-HRP surface expression, CFBE41o- cells; for Emax: read-out: DelF508-CFTR-HRP Amax %; for EC50: read-out: DelF508-CFTR-HRP EC50;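 on DelF508-CFTR-HRP Amax %: percent efficacy relative to reference corrector lumacaftor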
T2 construct: expressed in transfected cells
Method in brief: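 CFBE41o- bronchial epithelial cells stably expressing delF508-CFTR with HRP in the fourth extracellular loop; expression induced 48h with 500 ng/mL doxycycline, then compounds added (top 10 μM, 10-point 3-fold series, ≤0.5% DMSO) for 24h at 37° C. Surface HRP measured by luminescence with cell-impermeant substrate; EC50 from logistic fit of triplicates, plate-normalized to lowest concentration; efficacy also relative to a reference corrector.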

T1 sequence (P13569 with tags, fused parts or gaps DEL508-508): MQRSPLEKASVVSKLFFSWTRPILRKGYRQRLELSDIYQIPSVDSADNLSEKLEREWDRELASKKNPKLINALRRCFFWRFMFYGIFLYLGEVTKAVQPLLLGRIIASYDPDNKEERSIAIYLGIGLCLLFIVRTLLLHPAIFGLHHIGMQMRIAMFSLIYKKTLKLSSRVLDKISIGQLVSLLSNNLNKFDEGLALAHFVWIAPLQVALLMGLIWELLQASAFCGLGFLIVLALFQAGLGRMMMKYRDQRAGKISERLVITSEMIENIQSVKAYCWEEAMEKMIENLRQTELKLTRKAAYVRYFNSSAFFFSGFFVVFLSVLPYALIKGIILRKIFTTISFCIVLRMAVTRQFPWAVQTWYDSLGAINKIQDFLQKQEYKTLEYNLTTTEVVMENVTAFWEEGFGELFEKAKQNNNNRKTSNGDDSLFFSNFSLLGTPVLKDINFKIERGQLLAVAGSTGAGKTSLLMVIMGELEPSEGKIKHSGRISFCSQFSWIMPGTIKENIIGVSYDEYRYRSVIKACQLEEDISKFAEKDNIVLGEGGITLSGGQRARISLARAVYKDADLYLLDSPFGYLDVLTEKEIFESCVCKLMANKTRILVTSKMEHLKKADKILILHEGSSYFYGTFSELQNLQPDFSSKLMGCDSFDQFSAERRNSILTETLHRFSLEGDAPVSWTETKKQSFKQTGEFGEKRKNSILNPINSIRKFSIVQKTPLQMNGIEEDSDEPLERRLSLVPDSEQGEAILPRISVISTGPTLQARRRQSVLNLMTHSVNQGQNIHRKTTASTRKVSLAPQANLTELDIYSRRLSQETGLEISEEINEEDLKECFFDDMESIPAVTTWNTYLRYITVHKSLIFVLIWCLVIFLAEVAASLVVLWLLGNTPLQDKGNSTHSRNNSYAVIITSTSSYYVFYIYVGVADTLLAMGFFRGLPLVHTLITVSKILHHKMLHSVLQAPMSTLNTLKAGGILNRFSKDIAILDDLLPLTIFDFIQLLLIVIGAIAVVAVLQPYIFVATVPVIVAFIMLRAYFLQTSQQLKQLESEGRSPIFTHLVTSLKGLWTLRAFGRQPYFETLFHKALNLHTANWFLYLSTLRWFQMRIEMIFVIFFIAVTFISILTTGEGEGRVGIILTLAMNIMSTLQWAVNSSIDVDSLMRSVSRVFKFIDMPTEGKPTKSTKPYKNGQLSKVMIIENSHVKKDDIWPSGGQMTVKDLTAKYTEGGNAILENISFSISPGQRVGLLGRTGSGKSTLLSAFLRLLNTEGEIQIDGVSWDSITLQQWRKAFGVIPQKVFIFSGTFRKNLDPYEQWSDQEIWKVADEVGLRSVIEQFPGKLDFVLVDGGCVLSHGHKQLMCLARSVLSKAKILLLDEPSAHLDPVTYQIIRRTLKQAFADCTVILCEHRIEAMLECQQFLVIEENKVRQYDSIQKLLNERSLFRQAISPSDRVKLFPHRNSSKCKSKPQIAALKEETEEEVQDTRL
T2 sequence (P13569 with tags, fused parts or gaps DEL508-508): as above

Row | SMILES | MTECC24 CFHBEC- Amax % (delF508-CFTR) [%] | EC50 (delF508-CFTR) [µM] | Emax [1] [%] | EC50 [1] [µM]
1 | Cc1cccc(C)c1-c1nc(NS(=O)(=O)c2cccc(N3CCC(C)(C(=O)O)CC3)n2)ccc1Cl [Example 250, 1-(6-(N-(5-chloro-6-(2,6-dimethylphenyl)pyridin-2-yl)sulfamoyl)pyridin-2-yl)-4-methylpiperidine-4-carboxylic Acid] | 59.4 | 0.011 | 744 | 1.83
2 | Cc1c(F)cccc1-c1nc(NS(=O)(=O)c2cccc(N3CCC(C)(C(=O)O)CC3)n2)ccc1Cl [Example 253, 1-(6-(N-(5-chloro-6-(3-fluoro-2-methylphenyl)pyridin-2-yl)sulfamoyl)pyridin-2-yl)-4-methylpiperidine-4-carboxylic Acid] | 67.1 | 0.0278 | 203 | 2.29
3 | Cc1ccccc1-c1nc(NS(=O)(=O)c2cccc(N3CCC(C)(C(=O)O)CC3)n2)ccc1Cl [Example 255, 1-(6-(N-(5-chloro-6-(o-tolyl)pyridin-2-yl)sulfamoyl)pyridin-2-yl)-4-methylpiperidine-4-carboxylic Acid] | 55.1 | 0.0104 | 222 | 3.16
4 | Cc1ccc(F)cc1-c1nc(NS(=O)(=O)c2cccc(N3CCC(C)(C(=O)O)CC3)n2)ccc1Cl [Example 257, 1-(6-{[5-chloro-6-(5-fluoro-2-methylphenyl)pyridin-2-yl]sulfamoyl}pyridin-2-yl)-4-methylpiperidine-4-carboxylic Acid] | 63.0 | 0.0218 | 198 | 1.35
5 | Cc1ccc(F)cc1-c1nc(NS(=O)(=O)c2cccc(N3CCC(C)(C(=O)O)CC3)n2)ccc1C(F)(F)F [Example 262, 1-(6-{[6-(5-fluoro-2-methylphenyl)-5-(trifluoromethyl)pyridin-2-yl]sulfamoyl}pyridin-2-yl)-4-methylpiperidine-4-carboxylic Acid] | 81.2 | 0.014 | 628 | 2.29
6 | Cc1c(F)cccc1-c1nc(NS(=O)(=O)c2cccc(N3CCC(C)(C(=O)O)CC3)n2)ccc1C(F)(F)F [Example 263, 1-(6-(N-(6-(3-fluoro-2-methylphenyl)-5-(trifluoromethyl)pyridin-2-yl)sulfamoyl)pyridin-2-yl)-4-methylpiperidine-4-carboxylic Acid] | 54.4 | 0.0083 | 481 | 2.87
7 | Cc1ccccc1-c1nc(NS(=O)(=O)c2cccc(N3CCC(C)(C(=O)O)CC3)n2)ccc1C(F)(F)F [Example 264, 4-methyl-1-(6-(N-(6-(o-tolyl)-5-(trifluoromethyl)pyridin-2-yl)sulfamoyl)pyridin-2-yl)piperidine-4-carboxylic Acid] | 67.2 | 0.0117 | 448 | 2.6
8 | Cc1cccc(C)c1-c1nc(NS(=O)(=O)c2cccc(N3CCC(C)(C(=O)O)CC3)n2)ccc1C(F)(F)F [Example 265, 1-(6-{[6-(2,6-dimethylphenyl)-5-(trifluoromethyl)pyridin-2-yl]sulfamoyl}pyridin-2-yl)-4-methylpiperidine-4-carboxylic Acid] | 53.1 | 0.0134 | 879 | 1.83
9 | COC(=O)C1(N)CCN(c2cccc(S(=O)(=O)Nc3ccc(Cl)c(-c4c(C)cccc4C)n3)n2)CC1 [Example 270, methyl 4-amino-1-(6-{[5-chloro-6-(2,6-dimethylphenyl)pyridin-2-yl]sulfamoyl}pyridin-2-yl)piperidine-4-carboxylate] | 69.5 | 0.095 | 561 | 1.94
10 | Cc1cccc(C)c1-c1nc(NS(=O)(=O)c2cccc(NC3CCOCC3)n2)ccc1Cl [Example 271, N-[5-chloro-6-(2,6-dimethylphenyl)pyridin-2-yl]-6-[(oxan-4-yl)amino]pyridine-2-sulfonamide] | 66.6 | 0.0088 | 837 | 1.08
11 | Cc1ccc(F)cc1-c1nc(NS(=O)(=O)c2cccc(N[C@@H]3CCOC[C@@H]3O)n2)ccc1Cl [Example 272, N-[5-chloro-6-(5-fluoro-2-methylphenyl)pyridin-2-yl]-6-{[(3R,4R)-3-hydroxyoxan-4-yl]amino}pyridine-2-sulfonamide] | 66.4 | 0.0105 | 806 | 2.31
12 | Cc1cccc(C)c1-c1nc(NS(=O)(=O)c2cccc(N[C@H]3C[C@@](C)(O)C3)n2)ccc1Cl [Example 285, N-[5-chloro-6-(2,6-dimethylphenyl)pyridin-2-yl]-6-{[(1r,3s)-3-hydroxy-3-methylcyclobutyl]amino}pyridine-2-sulfonamide] | 74.1 | 0.0189 |  | 1.24

Compounds with a lower EC50 (delF508-CFTR), results first:

Row | MTECC24 CFHBEC- Amax % (delF508-CFTR) [%] | EC50 (delF508-CFTR) [µM] | Emax [1] [%] | EC50 [1] [µM] | SMILES
13 | 70.9 | 0.0064 |  | 1.38 | Cc1ccc(F)cc1-c1nc(NS(=O)(=O)c2cccc(N[C@@H]3CCOC[C@H]3O)n2)ccc1Cl [Example 273, N-[5-chloro-6-(5-fluoro-2-methylphenyl)pyridin-2-yl]-6-{[(3S,4R)-3-hydroxyoxan-4-yl]amino}pyridine-2-sulfonamide]
14 | 73.4 | 0.0054 |  | 1.1 | Cc1ccc(F)cc1-c1nc(NS(=O)(=O)c2cccc(N[C@@H]3COCC[C@H]3O)n2)ccc1Cl [Example 278, N-[5-chloro-6-(5-fluoro-2-methylphenyl)pyridin-2-yl]-6-{[(3R,4R)-4-hydroxyoxan-3-yl]amino}pyridine-2-sulfonamide]
15 | 62.2 | 0.0038 | 620 | 2.59 | CCOC(=O)C1(C)CCN(c2cccc(S(=O)(=O)Nc3ccc(Cl)c(-c4ccccc4C)n3)n2)CC1 [Example 254, ethyl 1-(6-(N-(5-chloro-6-(o-tolyl)pyridin-2-yl)sulfamoyl)pyridin-2-yl)-4-methylpiperidine-4-carboxylate]
16 | 93.7 | 0.0035 |  | 1.19 | Cc1ccccc1-c1nc(NS(=O)(=O)c2cccc(N[C@@H]3COCC[C@H]3O)n2)ccc1C(F)(F)F [Example 279, 6-{[(3R,4R)-4-hydroxyoxan-3-yl]amino}-N-[6-(2-methylphenyl)-5-(trifluoromethyl)pyridin-2-yl]pyridine-2-sulfonamide]
17 | 77.0 | 0.0033 | 779 | 1.87 | Cc1ccccc1-c1nc(NS(=O)(=O)c2cccc(N[C@@H]3CCOC[C@H]3O)n2)ccc1C(F)(F)F [Example 274, 6-(((3S,4R)-3-hydroxytetrahydro-2H-pyran-4-yl)amino)-N-(6-(o-tolyl)-5-(trifluoromethyl)pyridin-2-yl)pyridine-2-sulfonamide]
18 | 61.2 | 0.0032 | 894 | 1.45 | CCOC(=O)C1(C)CCN(c2cccc(S(=O)(=O)Nc3ccc(C(F)(F)F)c(-c4cc(F)ccc4C)n3)n2)CC1 [Example 251, ethyl 1-(6-(N-(6-(5-fluoro-2-methylphenyl)-5-(trifluoromethyl)pyridin-2-yl)sulfamoyl)pyridin-2-yl)-4-methylpiperidine-4-carboxylate]
19 | 52.6 | 0.0029 | 662 | 2.77 | CCOC(=O)C1(C)CCN(c2cccc(S(=O)(=O)Nc3ccc(Cl)c(-c4cc(F)ccc4C)n3)n2)CC1 [Example 256, ethyl 1-(6-(N-(5-chloro-6-(5-fluoro-2-methylphenyl)pyridin-2-yl)sulfamoyl)pyridin-2-yl)-4-methylpiperidine-4-carboxylate]
20 | 66.7 | 0.0019 | 801 | 1.57 | CCOC(=O)C1(C)CCN(c2cccc(S(=O)(=O)Nc3ccc(C(F)(F)F)c(-c4ccccc4C)n3)n2)CC1 [Example 259, ethyl 4-methyl-1-(6-{[6-(2-methylphenyl)-5-(trifluoromethyl)pyridin-2-yl]sulfamoyl}pyridin-2-yl)piperidine-4-carboxylate]
21 | 85.2 | 0.0009 | 493 | 2.28 | Cc1ccccc1-c1nc(NS(=O)(=O)c2cccc(N[C@H]3C[C@H](O)C3)n2)ccc1C(F)(F)F [Example 284, N-[6-(2-methylphenyl)-5-(trifluoromethyl)pyridin-2-yl]-6-{[(1r,3r)-3-hydroxycyclobutyl]amino}pyridine-2-sulfonamide]
22 | 84.0 | 0.0008 |  | 1.59 | Cc1ccccc1-c1nc(NS(=O)(=O)c2cccc(N[C@H]3C[C@@H](O)C3)n2)ccc1C(F)(F)F [Example 283, N-[6-(2-methylphenyl)-5-(trifluoromethyl)pyridin-2-yl]-6-{[(1s,3s)-3-hydroxycyclobutyl]amino}pyridine-2-sulfonamide]
